This note sets out measurements from US4562191A (priority 1983, dated 1985).

The assay relates to Male CD-1 albino mice. Also noted: species or system mouse (CD-1 albino). The following applies: mouse, in vivo.

Each structure is given as a SMILES string. Values joined by “and” are separate entries in the source; they are usually repeats but may differ in a detail not shown here. Equal values may be shown once.

Take `CC(=O)Oc1ccccc1C(=O)O` [Acetyl-salicylic acid, acetylsalicylic acid]: the “Mean number of contortions ± S.D.” value came out at 13.5 ± 11.1 and the “No. of animals exhibiting contortions out of total” value is 4/6. On the same counts, the results for `CCC(=O)O[C@](Cc1ccccc1)(c1ccccc1)[C@H](C)CN(C)C` [D-propoxyphene] are 2.5 ± 2.1 and 2/6. Consider `CCCCC1C(=O)N(c2ccccc2)N(c2ccccc2)C1=O` [Phenylbutazone], for which the “No. of animals exhibiting contortions out of total” value is 3/6 and 5/6.
